The term IC50 denotes the concentration needed to halve the response being measured.

Common to all, as to assay type: biochemical
The target in assay [1] is T1, Recombinant human JAK3 catalytic domain (Homo sapiens, UniProt P52333).
T1 construct: catalytic domain (amino acids 795-1124; catalog number 08-046); purchased Carna Biosciences 08-046
As to the kind of experiment: JAK3 inhibition assay. The following applies: polyGT substrate, 33P-gamma-ATP filter assay, 1 μM ATP. In short, it runs like this: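 Kinase domain aa 795-1124 with polyGT substrate, 1 μM ATP plus ^33P-γ-ATP, pH 7.5 Tris buffer, 1% DMSO; 45 min at 30° C. Filter-bound radioactivity counted, inhibition normalised to vehicle and 10 μM staurosporine. IC50 from 10-point 1/5 dilutions, top concentration usually 20 μM.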

The target in a further assay is T2, Recombinant human JAK1 (Homo sapiens, UniProt P23458).
T2 construct: catalytic domain (amino acids 866-1154; catalog number PV4774); purchased Invitrogen PV4774
Briefly: JAK1 Ulight-JAK1 peptide assay. Conditions: Ulight-JAK1(tyr1023) peptide, 7 μM ATP. In short, it runs like this:
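TR-FRET assay: recombinant human JAK1 catalytic domain (aa 866-1154, 1 ng) phosphorylates 20 nM Ulight-JAK1(tyr1023) peptide at 7 μM ATP in MOPS pH 6.8 buffer, 1% DMSO, for 60 min at room temperature. Eu-anti-phosphotyrosine detection follows EDTA stop. IC50 comes from 10-point ⅕ dilutions from 20 μM, normalized to 10 μM staurosporine.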

Another assay concerns the target T3, Recombinant human JAK2 (Homo sapiens, UniProt O60674).
T3 construct: catalytic domain (amino acids 808-1132; catalog number PV4210); GST; purchased Invitrogen PV4210
As to the kind of experiment: JAK2 Ulight-JAK1 peptide assay. Conditions: Ulight-JAK1(tyr1023) peptide, 7.5 μM ATP. In short, it runs like this:
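JAK2 catalytic domain ([…]), 0.0125 mU, with 25 nM Ulight-JAK1(tyr1023) peptide, 7.5 μM ATP, HEPES pH7.0, 60 min at room temperature; stopped with EDTA and Eu-anti-phosphotyrosine, TR-FRET read at 615 nm. Inhibition normalised to vehicle and 10 μM staurosporine; IC50 from 10-point ⅕ dilutions from 20 μM, 1% DMSO.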

T1 sequence (P52333 795-1124): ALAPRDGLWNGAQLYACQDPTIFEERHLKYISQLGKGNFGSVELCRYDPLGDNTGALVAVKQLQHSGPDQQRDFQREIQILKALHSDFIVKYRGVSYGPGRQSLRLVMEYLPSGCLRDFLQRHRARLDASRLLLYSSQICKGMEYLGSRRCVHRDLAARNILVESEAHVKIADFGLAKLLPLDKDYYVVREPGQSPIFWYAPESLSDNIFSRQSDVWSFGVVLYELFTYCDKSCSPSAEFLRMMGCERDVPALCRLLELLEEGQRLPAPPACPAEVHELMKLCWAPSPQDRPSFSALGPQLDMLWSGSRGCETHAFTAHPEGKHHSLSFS
T2 sequence (P23458 866-1154): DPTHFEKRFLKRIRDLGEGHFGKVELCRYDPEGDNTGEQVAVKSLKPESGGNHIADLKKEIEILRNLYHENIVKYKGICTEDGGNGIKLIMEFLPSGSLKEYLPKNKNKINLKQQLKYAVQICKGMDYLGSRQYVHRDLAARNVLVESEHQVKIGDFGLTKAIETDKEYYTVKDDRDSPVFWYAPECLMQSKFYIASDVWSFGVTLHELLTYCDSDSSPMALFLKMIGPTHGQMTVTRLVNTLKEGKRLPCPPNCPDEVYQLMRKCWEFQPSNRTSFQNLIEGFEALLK
T3 sequence (O60674 808-1132): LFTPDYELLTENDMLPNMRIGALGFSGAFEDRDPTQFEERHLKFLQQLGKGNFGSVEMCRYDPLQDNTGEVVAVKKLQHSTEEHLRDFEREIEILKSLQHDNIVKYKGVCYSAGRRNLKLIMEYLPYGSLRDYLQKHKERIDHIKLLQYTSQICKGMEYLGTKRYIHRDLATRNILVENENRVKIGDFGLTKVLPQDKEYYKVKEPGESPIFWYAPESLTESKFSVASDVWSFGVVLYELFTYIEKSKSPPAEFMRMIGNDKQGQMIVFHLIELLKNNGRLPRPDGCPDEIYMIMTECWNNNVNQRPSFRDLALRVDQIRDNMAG

For `CC(=O)Nc1cc2c(-c3ccc(C(C)N4CCN(S(C)(=O)=O)CC4)cc3)cccn2n1` (stereo not drawn) [Compound 45, N-(4-(4-(1-(4-(methylsulfonyl)piperazin-1-yl)ethyl)phenyl)pyrazolo[1,5-a]pyridin-2-yl)acetamide], the IC50 in assay [1] lay in the range of 101 to 500 nM; at Recombinant human JAK1, 0.01 to 100 nM; on Recombinant human JAK2, 0.01 to 100 nM.

With `C[C@H](c1ccc(-c2cccn3nc(NC(=O)C4CC4)cc23)cc1)N1CCN(S(C)(=O)=O)CC1` [Compound 46, (R)-N-(4-(4-(1-(4-(methylsulfonyl)piperazin-1-yl)ethyl)phenyl)pyrazolo[1,5-a]pyridin-2-yl)cyclopropanecarboxamide], the 50% inhibitory concentration (IC50) (in assay [1]; on Recombinant human JAK1; at Recombinant human JAK2) was 0.01 to 100 nM each time.

Take `CC(=O)Nc1cc2c(-c3ccc(CN4CCN(S(C)(=O)=O)CC4)c(F)c3)cccn2n1` [Compound 21]: the IC50 was 101 to 500 nM in assay [1], 0.01 to 100 nM on Recombinant human JAK1 and 0.01 to 100 nM on Recombinant human JAK2.

Regarding `CC(=O)Nc1cc2c(-c3ccc(CC(=O)N4COCC4(C)C)cc3)cccn2n1` [Compound 38, N-(4-(4-(2-(4,4-dimethyloxazolidin-3-yl)-2-oxoethyl)phenyl)pyrazolo[1,5-a]pyridin-2-yl)acetamide], the figures for the 50% inhibitory concentration (IC50) (in assay [1]; on Recombinant human JAK1; at Recombinant human JAK2) were 501 to 1000 nM, 101 to 500 nM and 0.01 to 100 nM, respectively.

For `C[C@@H]1CN(S(C)(=O)=O)CCN1Cc1ccc(-c2cccn3nc(NC(=O)C4CC4)cc23)cc1` [Compound 44, (R)-N-(4-(4-((2-methyl-4-(methylsulfonyl)piperazin-1-yl)methyl)phenyl)pyrazolo[1,5-a]pyridin-2-yl)cyclopropanecarboxamide], the IC50 (in assay [1]; at Recombinant human JAK1; on Recombinant human JAK2) was 0.01 to 100 nM each time.

For the compound `O=C(Nc1cc2c(-c3ccc(CN4CCS(=O)(=O)CC4)cc3)cccn2n1)C1CC1` [Compound 10, Cyclopropanecarboxylic acid {4-[4-(1,1-dioxo-thiomorpholin-4-ylmethyl)-phenyl]-pyrazolo[1,5-a]pyridin-2-yl}-amide], the half-maximal inhibitory concentration (IC50) (in assay [1]; on Recombinant human JAK1; on Recombinant human JAK2) was 0.01 to 100 nM in each case.

With `O=C(Nc1cc2c(-c3ccc(C(=O)N4CCCCC4)cc3)cccn2n1)C1CC1` [Compound 14, Cyclopropanecarboxylic acid {4-[4-(piperidine-1-carbonyl)-phenyl]-pyrazolo[1,5-a]pyridin-2-yl}-amide], the half-maximal inhibitory concentration (IC50) in assay [1] was in the range of 101 to 500 nM; at Recombinant human JAK1 it was 0.01 to 100 nM; on Recombinant human JAK2, 0.01 to 100 nM.

With `COc1ccc(-c2cccn3nc(NC(=O)C4CC4)cc23)cc1` [Compound 1, N-(4-(4-methoxyphenyl)pyrazolo[1,5-a]pyridin-2-yl)cyclopropanecarboxamide], the IC50 (in assay [1]; at Recombinant human JAK1; at Recombinant human JAK2) was 0.01 to 100 nM each time.
